# Values joined by “and” are separate entries in the source; they are usually repeats but may differ in a detail not shown here. Equal entries are not always repeated. “Also recorded” adds a separate entry of the source.
# Key:
# [1] = tested on: adolescents with Fontan physiology; assay: FUEL trial: safety, adverse event reports; assay type: in vivo, human
# Description: The primary outcome was the change in oxygen consumption at peak exercise (max or peak VO2) from baseline to the 26-week visit. Secondary exercise outcomes included change in additional measures at maximal exertion, as well as change in measures of submaximal exercise at the ventilatory anaerobic threshold (VAT). The primary outcome for clinical secondary aims included change in myocardial performance index (MPI), an echocardiographically-derived measure of systolic and diastolic ventricular function, change in log-transformed reactive hyperemia index (lnRHI), a PAT-derived measure of peripheral vascular function, and change in log-transformed serum BNP level. Safety was monitored through adverse event reports, which were collected according to a pre-specified protocol of study coordinator outreach, and through ad hoc patient and family communication with members of the study team at each site.
# The primary outcome for clinical secondary aims included the between group differences in change in myocardial performance index (MPI), an echocardiographically-derived measure of systolic and diastolic ventricular function, change in log-transformed reactive hyperemia index (lnRHI), a PAT-derived measure of peripheral vascular function, and change in log-transformed serum BNP level. Measurements for each of these secondary outcomes were performed at core labs. Safety was monitored through adverse event reports, which were collected according to a pre-specified protocol of study coordinator outreach, and through ad hoc patient and family communication with members of the study team at each site.
# [2] = tested on: adolescents with Fontan physiology; assay: FUEL trial: resting data and cardiopulmonary exercise test (CPET), cycle ergometer ramp protocol; assay type: in vivo, human; conditions: for Anaerobic threshold VE/VCO2 / Anaerobic threshold oxygen consumption / Anaerobic threshold work / Peak exercise heart rate / Peak exercise minute ventilation / Peak exercise oxygen consumption / Peak exercise oxygen saturation / Peak exercise respiratory rate / Peak exercise work rate / Resting diastolic blood pressure / Resting heart rate / Resting oxygen saturation / Resting systolic blood pressure: mean ± SD; for Resting oxygen saturation, change: p 0.002 vs placebo; for Resting diastolic blood pressure, change: p 0.003 vs placebo; for Anaerobic threshold VE/VCO2, change: p 0.011 vs placebo
# Description: Exercise testing can include assessment of VO2 values during maximal effort or at the ventilator anaerobic threshold (VAT). VO2 max, or maximal oxygen consumption, refers to the maximum amount of oxygen that an individual can utilize during intense exercise. This measurement is generally considered a reliable indicator of cardiovascular fitness and aerobic endurance. The more oxygen a person can use during high level exercise, the more energy that person can produce. This test has been the standard for cardiorespiratory fitness because muscles need oxygen for prolonged (aerobic) exercise; blood carries oxygen to the muscles and the heart must pump adequate amounts of blood to meet the demands of aerobic exercise.
# (§1) VO2 is often measured by putting a mask on a subject, and measuring the volume and gas concentrations of inhaled and expired air. This measurement is often used in both clinical settings and research and is considered the most accurate. Testing commonly involves either exercising on a treadmill or riding a cycle ergometer at increasing intensity until exhaustion, and is designed to provide readings at a maximal effort of the subject and/or at the subject's anaerobic threshold.
# Exercise testing can include assessment of VO2 values during maximal effort or at ventilator anaerobic threshold (“VAT”). VO2 max (“peak VO2”), or maximal (“peak”) oxygen consumption, refers to the maximum amount of oxygen that an individual can utilize during intense exercise. This measurement is generally considered a reliable indicator of cardiovascular fitness and aerobic endurance. Theoretically, the more oxygen a person can use during exercise, the more energy that person can produce. This test is often used for cardiorespiratory fitness because muscles need oxygen for prolonged (aerobic) exercise; blood carries oxygen to the muscles and the heart must pump adequate amounts of blood to meet the demands of aerobic exercise. However, while peak VO2 may be useful as a surrogate for many cardiovascular disease states, it may not be as relevant an endpoint after the Fontan operation. In this unique physiology, central venous pressure, rather than right ventricular contraction (pumping), is the primary driver of transpulmonary blood flow and, therefore, cardiac output. Gewillig M and Goldberg D J. Failure of the fontan circulation. Heart Fail Clin. 10(1):105-116 (January 2014); Egbe A C, Connolly H M, Miranda W R, Ammash N M, Hagler D J, Veldtman G R and Borlaug B A. Hemodynamics of Fontan Failure: The Role of Pulmonary Vascular Disease. Circ Heart Fail. 10(12): e004515 (September 2017); Gewillig M, Brown S C, Eyskens B, Heying R, Ganame J, Budts W, La Gerche A and Gorenflo M. The Fontan circulation: who controls cardiac output?Interact Cardiovasc Thorac Surg. 10(3):428-433 (March 2010); and Goldberg D J, Avitabile C M, McBride M G and Paridon S M. Exercise capacity in the Fontan circulation. Cardiol Young. 23(6):824-830 (December 2013). As the demand for cardiac output increases with exertion, central venous pressure in the Fontan circulation must rise to meet that demand, but eventually reaches a critical ceiling beyond which it can rise no further. Navaratnam D, Fitzsimmons S, Grocott M, Rossiter H B, Emmanuel Y, Diller G P, Gordon-Walker T, Jack S, Sheron N, Pappachan J, Pratap J N, Vettukattil J J and Veldtman G. Exercise-Induced Systemic Venous Hypertension in the Fontan Circulation. Am J Cardiol. 117(10):1667-1671 (May 15, 2016).
# as §1, with “research and has been considered the” for “research and is considered the”, “anaerobic threshold. […]” for “anaerobic threshold.”
# [3] = 87.5 mg twice daily, Change baseline to 26-week
# [4] = 87.5 mg twice daily, Change baseline to 26-week, listed as udenafil
# [5] = 87.5 mg twice daily, baseline to 26-week
structure (smiles),measurement,setting,value
"CCCOc1ccc(S(=O)(=O)NCCC2CCCN2C)cc1-c1nc2c(CCC)nn(C)c2c(=O)[nH]1 (centres unmarked) [Udenafil, udenafil]",Deaths in the study cohort,[1]; FUEL trial,no deaths
same,"Non-serious adverse event: Dizziness, participants","[1]; human, in vivo, 6 months",16 (8.0) n (%)
same,"Non-serious adverse event: Epistaxis, participants","[1]; human, in vivo, 6 months",21 (10.5) n (%)
same,"Non-serious adverse event: Flushing, participants","[1]; human, in vivo, 6 months",32 (16.0) n (%)
same,"Non-serious adverse event: Headache, participants","[1]; human, in vivo, 6 months",79 (39.5) n (%)
same,"Non-serious adverse event: Nausea/vomiting, participants","[1]; human, in vivo, 6 months",31 (15.5) n (%)
same,Participants who experienced a serious adverse event,"[1]; human, in vivo, 6 months",14
same,"Serious adverse events with possible, probable, or definite relationship to study drug, number of events","[1]; human, in vivo, 6 months",3
same,"Headache, facial flushing, abdominal pain, epistaxis, and erection (male participants), frequency vs placebo",[1]; in vivo,more common in the udenafil group
same,Priapism,[1]; in vivo,no reported episodes of priapism
same,"Non-serious adverse event: Increased erection, participants","[1]; male, human, in vivo, 6 months",13 (11.7) n (%)
same,"Multiple measures of exercise performance at the ventilatory anaerobic threshold, udenafil vs placebo",[2]; 87.5 mg twice daily,statistically significant improvements
same,Anaerobic threshold VE/VCO2,"[2]; 87.5 mg twice daily, 26-week",33.6 ± 4.8
same,Anaerobic threshold oxygen consumption,"[2]; 87.5 mg twice daily, 26-week",1059 ± 292 mL/min
same,Anaerobic threshold work,"[2]; 87.5 mg twice daily, 26-week",69.2 ± 26 W
same,Peak exercise heart rate,"[2]; 87.5 mg twice daily, 26-week",165 ± 20 bpm
same,Peak exercise minute ventilation,"[2]; 87.5 mg twice daily, 26-week",73 ± 22 L/min
same,Peak exercise oxygen consumption,"[2]; 87.5 mg twice daily, 26-week",1606 ± 452 mL/min
same,Peak exercise oxygen saturation,"[2]; 87.5 mg twice daily, 26-week",89.6 ± 4.9%
same,Peak exercise respiratory rate,"[2]; 87.5 mg twice daily, 26-week",50 ± 12 breaths/min
same,Peak exercise work rate,"[2]; 87.5 mg twice daily, 26-week",124 ± 32 W
same,Resting diastolic blood pressure,"[2]; 87.5 mg twice daily, 26-week",65.3 ± 9.9 mmHg
same,Resting heart rate,"[2]; 87.5 mg twice daily, 26-week",86.6 ± 15.4 bpm
same,Resting oxygen saturation,"[2]; 87.5 mg twice daily, 26-week",93.3 ± 3.5%
same,Resting systolic blood pressure,"[2]; 87.5 mg twice daily, 26-week",110.5 ± 12.0 mmHg
same,Anaerobic threshold VE/VCO2,"[2]; 87.5 mg twice daily, Baseline",34.3 ± 4.9
same,Anaerobic threshold oxygen consumption,"[2]; 87.5 mg twice daily, Baseline",1039 ± 301 mL/min
same,Anaerobic threshold work,"[2]; 87.5 mg twice daily, Baseline",66.2 ± 26 W
same,Peak exercise heart rate,"[2]; 87.5 mg twice daily, Baseline",165 ± 20 bpm
same,Peak exercise minute ventilation,"[2]; 87.5 mg twice daily, Baseline",71 ± 21 L/min
same,Peak exercise oxygen consumption,"[2]; 87.5 mg twice daily, Baseline",1562 ± 437 mL/min
same,Peak exercise oxygen saturation,"[2]; 87.5 mg twice daily, Baseline",89.2 ± 5.3%
same,Peak exercise respiratory rate,"[2]; 87.5 mg twice daily, Baseline",51 ± 11 breaths/min
same,Peak exercise work rate,"[2]; 87.5 mg twice daily, Baseline",120 ± 32 W
same,Resting diastolic blood pressure,"[2]; 87.5 mg twice daily, Baseline",68.4 ± 9.5 mmHg
same,Resting heart rate,"[2]; 87.5 mg twice daily, Baseline",87.5 ± 15.3 bpm
same,Resting oxygen saturation,"[2]; 87.5 mg twice daily, Baseline",92.8 ± 3.9%
same,Resting systolic blood pressure,"[2]; 87.5 mg twice daily, Baseline",112.3 ± 12.1 mmHg
same,"Resting oxygen saturation, change",[2]; [3],0.5 ± 2.4%
same,"Resting oxygen saturation, change",[2]; [4],+0.5%
same,"Resting diastolic blood pressure, change",[2]; [3],−2.9 ± 9.7 mmHg
same,"Resting diastolic blood pressure, change",[2]; [4],−2.9 mmHg
same,"Anaerobic threshold VE/VCO2, change",[2]; [3],−0.76 ± 3.6^
same,"Anaerobic threshold VE/VCO2, change",[2]; [4],−0.8
same,"Anaerobic threshold oxygen consumption (VO2 at VAT), change","[2]; 87.5 mg twice daily, Change baseline to 26-week, p 0.023 vs placebo",29.7 ± 177 mL/min
same,"Anaerobic threshold work (work rate at VAT), change","[2]; 87.5 mg twice daily, Change baseline to 26-week, p 0.029 vs placebo",3.5 ± 15 W
same,"Peak exercise oxygen consumption (peak VO2, VO2 max), change","[2]; 87.5 mg twice daily, Change baseline to 26-week, p 0.071 vs placebo",44 ± 245 mL/min
same,"Resting systolic blood pressure, change","[2]; 87.5 mg twice daily, Change baseline to 26-week, p 0.18 vs placebo",−1.8 ± 12.2 mmHg
same,"Resting heart rate, change","[2]; 87.5 mg twice daily, Change baseline to 26-week, p 0.78 vs placebo",−0.9 ± 12.7 bpm
same,"Peak exercise work rate, change","[2]; 87.5 mg twice daily, Change baseline to 26-week, p 0.85 vs placebo",3.2 ± 14 W
same,"VE/VCO2 measured at VAT, decreased by, percent",[2]; [5],2.1%
same,"Work rate at VAT improved by, percent",[2]; [5],5.5% and 5.2%
same,"Change in resting heart rate, respiratory rate, or systolic blood pressure, udenafil vs placebo",[2]; baseline to 26-week,no difference
same,"Diastolic blood pressure in the udenafil group, in words",[2]; baseline to 26-week,small but statistically significant decrease
same,"Resting oxygen saturation in the udenafil group, in words",[2]; baseline to 26-week,small but statistically significant increase
same,"Oxygen consumption at peak exercise (peak VO2), difference udenafil vs placebo",[2]; p=0.071,did not reach statistical significance; also recorded: not associated with a statistically significant improvement

# Source: US20250186448A1 (Mezzion Pharma Co., Ltd., priority 2021, published 2025)
